Results as given in ChEMBL document CHEMBL4316623, “Phosphonodiamidate prodrugs of N-alkoxy analogs of a fosmidomycin surrogate as antimalarial and antitubercular agents” (Bioorg Med Chem Lett, 2019).
pIC50: −log10 of the molar value. Active and inactive are the calls of the source. No cut-off for these calls is given here.

How the values were obtained:
Plasmodium falciparum = experiment: Antimalarial activity against Chloroquine-resistant Plasmodium falciparum K1 measured after 72 hrs by malstat/NBT dye based assay; assay type: functional, organism-based; details: K1, 72 h
[1] = tested on: Mycobacterium tuberculosis; experiment: Antitubercular activity against Mycobacterium tuberculosis H37Rv up to 50 uM measured after 7 days by resazurin dye based colometric microtiter assay; assay type: functional, organism-based
[2] = Cytotoxicity against human MRC5 cells assessed as reduction in cell viability measured after 24 hrs by resazurin dye based fluorimetric assay
[3] = Selectivity index, ratio of CC50 for human MRC5 cells to IC50 for Chloroquine-resistant Plasmodium falciparum K1; assay type: toxicity; details: read-out: Ratio CC50/IC50
[4] = Oral bioavailability in human; assay type: ADME, organism-based; details: in vivo
[5] = Half life in human at 500 mg, po; assay type: ADME; details: in vivo

| Compound | pIC50 (Plasmodium falciparum) | Activity [1] | CC50 at 24 h [2] [µM] | selectivity ratio [3] | bioavailability [4] [%] | half-life [5] [h] |
| --- | --- | --- | --- | --- | --- | --- |
| CCOC(=O)[C@H](CC(C)C)NP(=O)(CCCC(=O)N(C)OCCCCc1ccccc1)N[C@@H](CC(C)C)C(=O)OCC | 5.17 | inactive | 7.23 | 1.1 |  |  |
| CCOC(=O)[C@H](CC(C)C)NP(=O)(CCCC(=O)N(C)OCc1ccccc1)N[C@@H](CC(C)C)C(=O)OCC | 5.37 | inactive | > 64 | > 15 |  |  |
| CCOC(=O)[C@H](CC(C)C)NP(=O)(CCCC(=O)N(C)OCc1ccc2ccccc2c1)N[C@@H](CC(C)C)C(=O)OCC | 5.21 | inactive | 5.47 | 0.88 |  |  |
| CCOC(=O)[C@H](CC(C)C)NP(=O)(CCCC(=O)N(C)OCCCc1ccccc1)N[C@@H](CC(C)C)C(=O)OCC | 5.05 | inactive | 23.1 | 2.6 |  |  |
| CCOC(=O)[C@H](CC(C)C)NP(=O)(CCCC(=O)N(C)O)N[C@@H](CC(C)C)C(=O)OCC | 5.32 | inactive | > 64 | > 20 |  |  |
| CCOC(=O)[C@H](CC(C)C)NP(=O)(CCCC(=O)N(C)OCc1ccc(-c2ccccc2)cc1)N[C@@H](CC(C)C)C(=O)OCC | 5.28 | inactive | 5.94 | 1.1 |  |  |
| CCOC(=O)[C@H](CC(C)C)NP(=O)(CCCC(=O)N(C)OCc1ccc(Cl)cc1)N[C@@H](CC(C)C)C(=O)OCC | 5.15 | inactive | 18.4 | 2.6 |  |  |
| O=CN(O)CCCP(=O)([O-])O.[Na+] [FOSMIDOMYCIN SODIUM] |  |  |  |  | 20 to 40 | 1.87 |
| CCOC(=O)[C@H](CC(C)C)NP(=O)(CCCC(=O)N(C)OCc1ccc(C(C)C)cc1)N[C@@H](CC(C)C)C(=O)OCC | 5.28 | inactive | 7.22 | 1.4 |  |  |
